Source: patent publication US4486593A, “2-,3-, or 4-Pyridinylmethylamino arylic acids as thromboxane A2 synthetase and 5-lipoxygenase inhibitors” (The Upjohn Company, priority 1983, dated 1984)

Test system: 5-lipoxygenase
Experiment: 5-lipoxygenase inhibition: oxygen uptake of washed human platelets after arachidonic acid (oxygraph cells)
Assay type: cell-based
Conditions: arachidonic acid added to washed human platelets; oxygen uptake versus control cell; read-out: approximate ED50, 5-lipoxygenase inhibition (decrease of oxygen uptake)
Procedure: The compounds of the present invention were also tested for 5-lipoxygenase inhibition. Arachidonic acid is added to washed human platlets and the oxygen uptake is measured using oxygraph cells. A decrease of oxygen uptake versus the control cell indicates inhibition of lipoxygenase. For a fuller description of the procedure see, Wallach, et al., Biochim. Biophys. Acta. 231:445 (1976).

Question: With COC(=O)c1cc(NCc2cccnc2)ccc1O [Example 3, 5-(3-Pyridinylmethylamino)salicylic Acid, Methyl Ester] as the compound, how does the IC50 read?
Answer: The IC50 was ~10 µM.
